In ChEMBL document CHEMBL1909294, “Translating clinical findings into knowledge in drug safety evaluation--drug induced liver injury prediction system (DILIps)” (PLoS Comput Biol, 2011):

Columns and labels:
Hepatotoxicity [1] = test system: Hepatotoxicity;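 on HepSE Combined Scores: combined hepatic side effect score as listed in the training data of the Drug Induced Liver Injury Prediction System (DILIps)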;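 on HepSE bilirubinemia: bilirubinemia hepatic side effect score drawn from the DILIps training data, a prediction system for drug-induced liver injury; call rule not given here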;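 on HepSE cholelithiasis: hepatic side effect score for cholelithiasis, drawn from the DILIps training data for predicting drug-induced liver injury; call rule not given here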;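 on HepSE cirrhosis: cirrhosis hepatic side effect score taken from the DILIps (drug-induced liver injury prediction) training set; call rule not given here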;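 on HepSE elevated liver function tests: hepatic side effect score for raised liver function tests, as recorded in the DILIps training set used for predicting drug-induced liver injury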; on HepSE liver disease: call rule not given here;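 on HepSE liver function tests abnormal: hepatic side effect score taken from the DILIps (drug-induced liver injury prediction system) training data, here covering abnormal liver function test findings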
Hepatotoxicity [2] = test system: Hepatotoxicity; remark: listed apart in the source;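 on HepSE Combined Scores: combined hepatic side effect score as listed in the training data of the Drug Induced Liver Injury Prediction System (DILIps)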;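 on HepSE bilirubinemia: bilirubinemia hepatic side effect score drawn from the DILIps training data, a prediction system for drug-induced liver injury; call rule not given here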;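 on HepSE cholelithiasis: hepatic side effect score for cholelithiasis, drawn from the DILIps training data for predicting drug-induced liver injury; call rule not given here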;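 on HepSE cirrhosis: cirrhosis hepatic side effect score taken from the DILIps (drug-induced liver injury prediction) training set; call rule not given here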;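 on HepSE elevated liver function tests: hepatic side effect score for raised liver function tests, as recorded in the DILIps training set used for predicting drug-induced liver injury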; on HepSE liver disease: call rule not given here;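 on HepSE liver function tests abnormal: hepatic side effect score taken from the DILIps (drug-induced liver injury prediction system) training data, here covering abnormal liver function test findings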
Hepatotoxicity [3] = test system: Hepatotoxicity; remark: listed apart in the source;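 on HepSE Combined Scores: combined hepatic side effect score as listed in the training data of the Drug Induced Liver Injury Prediction System (DILIps)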;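 on HepSE bilirubinemia: bilirubinemia hepatic side effect score drawn from the DILIps training data, a prediction system for drug-induced liver injury; call rule not given here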;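 on HepSE cholelithiasis: hepatic side effect score for cholelithiasis, drawn from the DILIps training data for predicting drug-induced liver injury; call rule not given here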;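 on HepSE cirrhosis: cirrhosis hepatic side effect score taken from the DILIps (drug-induced liver injury prediction) training set; call rule not given here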;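 on HepSE elevated liver function tests: hepatic side effect score for raised liver function tests, as recorded in the DILIps training set used for predicting drug-induced liver injury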; on HepSE liver disease: call rule not given here
Hepatotoxicity [4] = test system: Hepatotoxicity; remark: listed apart in the source;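 on HepSE Combined Scores: combined hepatic side effect score as listed in the training data of the Drug Induced Liver Injury Prediction System (DILIps)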;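 on HepSE bilirubinemia: bilirubinemia hepatic side effect score drawn from the DILIps training data, a prediction system for drug-induced liver injury; call rule not given here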;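 on HepSE cholelithiasis: hepatic side effect score for cholelithiasis, drawn from the DILIps training data for predicting drug-induced liver injury; call rule not given here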;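 on HepSE cirrhosis: cirrhosis hepatic side effect score taken from the DILIps (drug-induced liver injury prediction) training set; call rule not given here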;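 on HepSE elevated liver function tests: hepatic side effect score for raised liver function tests, as recorded in the DILIps training set used for predicting drug-induced liver injury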; on HepSE liver disease: call rule not given here
Hepatotoxicity [5] = test system: Hepatotoxicity; remark: listed apart in the source; on HepSE liver disease: call rule not given here
Hepatotoxicity [6] = test system: Hepatotoxicity; remark: listed apart in the source; on HepSE liver disease: call rule not given here
Hepatotoxicity [7] = test system: Hepatotoxicity; remark: listed apart in the source
Hepatotoxicity [8] = test system: Hepatotoxicity; remark: listed apart in the source
Hepatotoxicity [9] = test system: Hepatotoxicity; remark: listed apart in the source
Hepatotoxicity [10] = test system: Hepatotoxicity; remark: listed apart in the source
Hepatotoxicity [11] = test system: Hepatotoxicity; remark: listed apart in the source
Hepatotoxicity [12] = test system: Hepatotoxicity; remark: listed apart in the source
Hepatotoxicity [13] = test system: Hepatotoxicity; remark: listed apart in the source
Hepatotoxicity [14] = test system: Hepatotoxicity; remark: listed apart in the source

| SMILES | HepSE_bilirubinemia (Hepatotoxicity [1]) | HepSE_liver disease (Hepatotoxicity [2]) | HepSE_cirrhosis (Hepatotoxicity [3]) | HepSE_elevated liver function tests (Hepatotoxicity [4]) | HepSE_cholelithiasis (Hepatotoxicity [5]) | HepSE_Combined Scores (Hepatotoxicity [6]) | HepSE_hepatic necrosis (Hepatotoxicity [7]) | HepSE_liver function tests abnormal (Hepatotoxicity [8]) | HepSE_liver fatty (Hepatotoxicity [9]) | HepSE_hepatic failure (Hepatotoxicity [10]) | HepSE_jaundice (Hepatotoxicity [11]) | HepSE_hepatitis (Hepatotoxicity [12]) | HepSE_hepatomegaly (Hepatotoxicity [13]) | HepSE_cholecystitis (Hepatotoxicity [14]) |
| --- | --- | --- | --- | --- | --- | --- | --- | --- | --- | --- | --- | --- | --- | --- |
| COc1cc2nc(N3CCN(C(=O)C4CCCO4)CC3)nc(N)c2cc1OC (stereo unspecified) [TERAZOSIN] | 0 | 0 | 0 | 0 | 0 | 1 | 0 | 0 | 0 | 0 | 1 | 0 | 0 | 0 |
| CN(C/C=C/C#CC(C)(C)C)Cc1cccc2ccccc12 [TERBINAFINE] | 0 | 1 | 0 | 0 | 0 | 3 | 0 | 0 | 0 | 1 | 1 | 0 | 0 | 0 |
| CC(C)(C)NCC(O)c1cc(O)cc(O)c1 (stereo unspecified) [TERBUTALINE] | 0 | 0 | 0 | 0 | 0 | 0 | 0 | 0 | 0 | 0 | 0 | 0 | 0 | 0 |
| CC(C)N1CCN(c2ccc(OCC3COC(Cn4cncn4)(c4ccc(Cl)cc4Cl)O3)cc2)CC1 (stereo unspecified) [TERCONAZOLE] | 0 | 0 | 0 | 0 | 0 | 0 | 0 | 0 | 0 | 0 | 0 | 0 | 0 | 0 |
| C[C@]12CC[C@H]3[C@@H](CCC4=CC(=O)CC[C@@]43C)[C@@H]1CC[C@@H]2O [TESTOSTERONE] | 0 | 0 | 0 | 0 | 0 | 2 | 0 | 1 | 0 | 0 | 1 | 0 | 0 | 0 |
| CN(C)[C@@H]1C(O)=C(C(N)=O)C(=O)[C@@]2(O)C(O)=C3C(=O)c4c(O)cccc4[C@@](C)(O)[C@H]3C[C@@H]12 [TETRACYCLINE] | 0 | 0 | 0 | 0 | 0 | 1 | 0 | 0 | 0 | 1 | 0 | 0 | 0 | 0 |
| c1ccc2c(c1)CCCC2C1=NCCN1 (stereo unspecified) [TETRAHYDROZOLINE] | 0 | 0 | 0 | 0 | 0 | 0 | 0 | 0 | 0 | 0 | 0 | 0 | 0 | 0 |
| O=C1CCC(N2C(=O)c3ccccc3C2=O)C(=O)N1 (stereo unspecified) [THALIDOMIDE] | 1 | 0 | 0 | 0 | 0 | 4 | 0 | 0 | 0 | 0 | 1 | 1 | 1 | 0 |
| Cn1c(=O)c2[nH]cnc2n(C)c1=O.O [THEOPHYLLINE] | 0 | 0 | 0 | 0 | 0 | 0 | 0 | 0 | 0 | 0 | 0 | 0 | 0 | 0 |
